Format in all cases: cell-based
The test system of one experiment is A549 cells. The experiment is described as follows: in vitro antiproliferation assay, A549 (lung). The method, boiled down: (§1)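 IC50 values came from standard antiproliferation testing in cultured tumour cells; the A549 and H1299 lines are of lung origin.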
The subject of the next experiment is H1299 cells. The experiment is described as follows: in vitro antiproliferation assay, H1299 (lung). The method, boiled down: as §1
The test system of the next experiment is HCT116. Description: in vitro antiproliferation assay, HCT116 (colon). The method, boiled down:
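Antiproliferation, standard in vitro format; readout IC50. Parenthetical number next to cell line = seeding density.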

For another experiment, the system named is HELA. Description: in vitro antiproliferation assay, HELA (cervix/p53 wt). The procedure:
(§2) The IC50 values of various compounds against a various different tumor cell lines were determined using standard in vitro antiproliferation assays. The tumor cell lines tested were as follows: A549 (lung); H1299 (lung), ACHN (kidney/p53 wt), CAKI (renal cell carcinoma), NCI-H460 (lung); HCT116 (colon/p53w0; HELA (cervix/p53 wt), HUH7 (liver/p53 wt), HUVEC (primary endothelial), LNCAP (prostate), HT-29 (colon); MCF-7 (breast); MCF-7 (breast/ER positive), MDA MB435S (breast); MDA MB231 (breast/ER negative), DU145 (prostate); BxPC-3 (pancreatic); SKOV-3 (ovarian); HepG2 (hepatic), NDHF primary normal human dermal fibroblast), SKMEL28 (breast/p53mut), SKMEL5 (breast/p53 wt), U20S (bone) and PC3 (prostate). […] A blank indicates the specified compound was not tested against the specified cell line.
(§3) Many of the compounds were tested against other cell lines. Their activity is reported in TABLE 15, below, where +”, “−”, “−/+” or “+/−” values are as described for TABLES 1-14. Where the cell line includes a value in a parenthetical, the value indicates the seeding density at which the assay was performed

For a further experiment, the system named is U20S. The experiment is described as follows: in vitro antiproliferation assay, U20S (bone). The procedure: as §2, §3
For another experiment, the system named is HUVEC. Description: in vitro antiproliferation assay, HUVEC (primary endothelial). The procedure:
as §2, §3

In a further experiment the test system is SKMEL28. The experiment is described as follows: in vitro antiproliferation assay, SKMEL28 (breast/p53mut). The protocol:
as §2, §3

The subject of the next experiment is PC3. Description: in vitro antiproliferation assay, PC3 (prostate). The protocol:
as §2, §3

The subject of a further experiment is ACHN. Description: in vitro antiproliferation assay, ACHN (kidney/p53 wt). The procedure:
as §2, §3

Another experiment concerns CAKI. The experiment is described as follows: in vitro antiproliferation assay, CAKI (renal cell carcinoma). The procedure:
as §2, §3

For the next experiment, the system named is SKMEL5. The experiment is described as follows: in vitro antiproliferation assay, SKMEL5. The procedure:
as §2, §3

Setting [1] is: A549 (lung) cells, in vitro antiproliferation.
[2] abbreviates: H1299 (lung) cells, in vitro antiproliferation.
[3] abbreviates: HCT116 (colon), read-out: HCT116.
[4] abbreviates: A549 (lung) cells, antiproliferation.
Where [5] appears, read: H1299 (lung) cells, antiproliferation.
The mark [6] stands for this setting: Table 7, in vitro antiproliferation, A549 (lung) cells.
Where [7] appears, read: Table 5, in vitro antiproliferation, A549 (lung) cells.
The mark [8] stands for this setting: IC50 class against A549 (lung) tumor cells.
Where [9] appears, read: IC50 class against H1299 (lung) tumor cells.

Read-outs that look alike come from different tables or passages of the source. A value given as a limit tells only on which side of the number the result lay.

As for `COc1cc(OC)cc(N(C)c2nc(Nc3cc(C)cc(C)c3)ncc2F)c1` [compound 851], the IC50 in the experiment with A549 cells (setting [1]), with H1299 cells (setting [2]), in the experiment on HCT116 (setting [3]), with HELA and in the experiment on U20S was not above 20 µM throughout.
As for `COc1cc(Nc2ncc(F)c(Nc3ccc(Cl)c(Cl)c3)n2)cc(OC)c1` [compound 835], the IC50 in the experiment with A549 cells (setting [1]), with H1299 cells (setting [2]), in the experiment on HCT116 (setting [3]), with HUVEC and with U20S was not above 20 µM throughout.
For the molecule `Cc1cc(Nc2nc(Nc3cccc(OCCN4CCOCC4)c3)ncc2F)cc(C)c1O` [compound 949], the IC50 in the experiment with A549 cells (setting [4]), in the experiment on H1299 cells (setting [5]), in the experiment on HCT116 (setting [3]), in the experiment on SKMEL28 and in the experiment on PC3 was not above 20 µM throughout.
Take `Cc1cc(C)cc(Nc2ncc(F)c(N(C)c3ccc(Cl)c(Cl)c3)n2)c1` [compound 1007]: the IC50 with A549 cells (setting [4]), in the experiment with H1299 cells (setting [5]) and in the experiment on HUVEC was more than 20 µM each time.
In the case of `COc1cc(Nc2nc(Nc3cccc(OCCO)c3)ncc2F)cc(OC)c1` [compound 940], the IC50 in the experiment with A549 cells (setting [4]), with H1299 cells (setting [5]), in the experiment with HCT116 (setting [3]) and with PC3 was not above 20 µM in each case.
In the case of `COc1ccc(N(C)c2nc(Nc3cccc(-c4ncco4)c3)ncc2F)cc1OC` [compound 868], the IC50 with A549 cells (setting [1]), with H1299 cells (setting [2]), with ACHN, in the experiment with CAKI, in the experiment on HCT116 (setting [3]) and in the experiment with SKMEL28 was not above 20 µM throughout. Also, the IC50 with SKMEL5 and in the experiment with U20S was not above 20 µM in each case.
With `CCOC(=O)COc1cccc(Nc2ncc(F)c(Nc3cccc(C(C)(C)C)c3)n2)c1` [compound 958], the IC50 in the experiment with A549 cells (setting [4]), with H1299 cells (setting [5]) and in the experiment on PC3 was more than 20 µM in each case.
Regarding `CNC(=O)COc1cccc(Nc2ncc(F)c(Nc3ccc(Cl)c(Cl)c3)n2)c1` [compound 1006], the IC50 in the experiment with A549 cells (setting [4]), with H1299 cells (setting [5]) and in the experiment on HUVEC was not above 20 µM each time.
On to `O=C(c1cc2cc(Nc3ncc(F)c(Nc4ccc5c(c4)OCCO5)n3)ccc2o1)N1CCCNCC1` [compound 644], for which the IC50 was not above 20 µM in the experiment on A549 cells (setting [6]); not above 20 µM in the experiment with HCT116 (setting [3]); not above 20 µM with HCT116 (Table 7, in vitro antiproliferation, colon cells, read-out: HTC116); more than 20 µM with PC3.
`CCOC(=O)COc1cccc(Nc2nc(Nc3cccc(C(C)(C)C)c3)ncc2F)c1` [compound 955]: the IC50 in the experiment on A549 cells (setting [4]), with H1299 cells (setting [5]) and in the experiment with PC3 was more than 20 µM each time.
Regarding `COc1cc(Nc2nc(Nc3cc(C)cc(C)c3)ncc2F)cc(OC)c1` [compound 846], the IC50 in the experiment on A549 cells (setting [1]), with H1299 cells (setting [2]), with ACHN, in the experiment with CAKI, in the experiment with HCT116 (setting [3]) and with HUVEC was not above 20 µM throughout. In addition, the IC50 in the experiment on SKMEL28 and in the experiment on SKMEL5 was not above 20 µM throughout.
For `CCOC(=O)COc1cccc(Nc2ncc(F)c(Nc3cc(OC)cc(OC)c3)n2)c1` [compound 766], the IC50 in the experiment on A549 cells (setting [1]) is more than 20 µM; with H1299 cells (setting [2]), not above 20 µM; in the experiment on PC3, more than 20 µM.
With `CCOC(=O)COc1cccc(Nc2ncc(F)c(Nc3cc(C)c(O)c(C)c3)n2)c1` [compound 947], the IC50 was more than 20 µM with A549 cells (setting [4]), not above 20 µM with H1299 cells (setting [5]) and not above 20 µM in the experiment on PC3.
On to `CNC(=O)COc1cccc(Nc2ncc(F)c(Nc3ccc4c(c3)OC(F)(F)C(F)(F)O4)n2)c1` [compound 503], for which the IC50 was less than 20 µM in the experiment on A549 cells (setting [7]), not above 20 µM with HCT116 (setting [3]) and more than 20 µM with PC3.
Turning to `Cc1cc(Nc2nc(Nc3cccc(OCCN4CCNCC4)c3)ncc2F)cc(Cl)c1O` [compound 984], the IC50 in the experiment with A549 cells (setting [4]), with HCT116 (setting [3]) and in the experiment with PC3 was not above 20 µM each time.
On to `CCOC(=O)COc1cccc(Nc2nc(Nc3cccc(O)c3)ncc2F)c1` [compound 763], for which the IC50 with A549 cells (setting [1]) is more than 20 µM; in the experiment on H1299 cells (setting [2]) it was not above 20 µM; with PC3 it was more than 20 µM.
Turning to `CC(C)(C)c1cccc(Nc2nc(Nc3cccc(OCC(=O)O)c3)ncc2F)c1` [compound 962], the IC50 with A549 cells (setting [4]), in the experiment on H1299 cells (setting [5]) and in the experiment on PC3 was more than 20 µM each time.
As for `COc1cc(Nc2ncc(F)c(N(C)c3ccc(Cl)c(Cl)c3)n2)cc(OC)c1` [compound 1009], the results for the IC50 in the experiment on A549 cells (setting [4]), in the experiment with H1299 cells (setting [5]) and in the experiment on HUVEC were more than 20 µM, more than 20 µM and not above 20 µM, respectively.
As to `CNC(=O)COc1cccc(Nc2ncc(F)c(NC3CC3)n2)c1` [compound 106], the IC50 in the experiment with A549 cells (setting [8]), in the experiment on H1299 cells (setting [9]), with ACHN, with CAKI, in the experiment with HCT116 (setting [3]) and in the experiment with SKMEL28 was not above 20 µM in each case. In the experiment on SKMEL5, the IC50 was not above 20 µM.
As to `O=C(COc1cccc(Nc2ncc(F)c(NC3CC3)n2)c1)NC1CC1` [compound 102], the IC50 in the experiment on A549 cells (setting [8]), in the experiment on H1299 cells (setting [9]), in the experiment with ACHN, in the experiment on CAKI, in the experiment with HCT116 (setting [3]) and with SKMEL28 was not above 20 µM in each case. In the experiment on SKMEL5, this molecule came in with an IC50 not above 20 µM.
As for `Fc1cnc(Nc2ccc(N3CCOCC3)cc2)nc1NC1CC1` [compound 101], the IC50 in the experiment with A549 cells (setting [8]), in the experiment with H1299 cells (setting [9]), with ACHN, in the experiment on CAKI, in the experiment on HCT116 (setting [3]) and in the experiment with SKMEL28 was not above 20 µM throughout. Also, the IC50 in the experiment on SKMEL5 was not above 20 µM.
As to `Cc1cc(C)cc(Nc2ncc(F)c(Nc3ccc(Cl)c(Cl)c3)n2)c1` [compound 838], the IC50 in the experiment on A549 cells (setting [1]) was not above 20 µM; in the experiment on H1299 cells (setting [2]) it was more than 20 µM; in the experiment on HUVEC, more than 20 µM.
Consider `COc1ccc(N(C)c2nc(Nc3ccc(-c4ncco4)cc3)ncc2F)cc1OC` [compound 869], for which the IC50 with A549 cells (setting [1]), in the experiment with H1299 cells (setting [2]), in the experiment on ACHN, in the experiment on SKMEL28 and in the experiment with SKMEL5 was not above 20 µM throughout.
On to `CNC(=O)COc1cccc(Nc2ncc(F)c(Nc3ccc(OC(C)C)cc3)n2)c1` [compound 751], for which the IC50 is less than 20 µM in the experiment on A549 cells (setting [1]) and more than 20 µM in the experiment with PC3.
As to `Cc1cc(Nc2nc(Nc3cccc(OCC(=O)O)c3)ncc2F)cc(C)c1O` [compound 979], the IC50 was more than 20 µM in the experiment on A549 cells (setting [4]), not above 20 µM with H1299 cells (setting [5]) and more than 20 µM with PC3.
On to `CC(C)c1ccc(Nc2ncc(F)c(Nc3ccc4c(c3)OCCO4)n2)cc1` [compound 511], for which the IC50 with A549 cells (setting [7]) is more than 20 µM; in the experiment with PC3, not above 20 µM.
As for `O=C(COc1cccc(Nc2ncc(F)c(Nc3ccc4c(c3)OCCO4)n2)c1)NC1CCCCC1` [compound 508], the IC50 with A549 cells (setting [7]) and with PC3 was more than 20 µM each time.
`CC(C)c1ccc(Nc2ncc(F)c(Nc3cccc(O)c3)n2)cc1` [compound 764]: the IC50 with A549 cells (setting [1]) and in the experiment with PC3 was more than 20 µM each time.
On to `COC(=O)COc1cccc(Nc2ncc(F)c(Nc3cc(C)c(OC)c(C)c3)n2)c1` [compound 985], for which the IC50 in the experiment on A549 cells (setting [4]) and in the experiment with PC3 was more than 20 µM in each case.
On to `COc1ccc(Nc2nc(Nc3cccc(OCC(=O)NCC(O)CO)c3)ncc2F)cc1OC` (stereo not shown) [compound 754], for which the IC50 with A549 cells (setting [1]) and with PC3 was more than 20 µM each time.
Turning to `CNC(=O)c1cc2cccc(Nc3ncc(F)c(Nc4cc(OC)cc(OC)c4)n3)c2[nH]1` [compound 654], the IC50 with A549 cells (setting [6]) was not above 20 µM; in the experiment on H1299 cells (Table 7, in vitro antiproliferation, H1299 (lung) cells) it was not above 20 µM; with ACHN, not above 20 µM; in the experiment with CAKI it was not above 20 µM; in the experiment on SKMEL28, not above 20 µM; in the experiment on SKMEL5 it was not above 20 µM.
As for `Oc1cccc(Nc2ncc(F)c(Nc3ccc(OCCN4CCOCC4)cc3)n2)c1` [compound 746], the IC50 with A549 cells (setting [1]) and in the experiment with PC3 was more than 20 µM each time.
Turning to `O=C(COc1cccc(Nc2ncc(F)c(NC3CC3)n2)c1)NC1CCC1` [compound 103], the IC50 in the experiment with A549 cells (setting [8]), with H1299 cells (setting [9]), with ACHN, in the experiment with CAKI, in the experiment with HCT116 (setting [3]) and with SKMEL28 was not above 20 µM throughout. The IC50 in the experiment on SKMEL5 was not above 20 µM.
As for `CNC(=O)COc1cccc(Nc2ncc(F)c(Nc3cccc(C(C)(C)C)c3)n2)c1` [compound 960], the IC50 in the experiment on A549 cells (setting [4]) and with PC3 was more than 20 µM throughout.
